The values below come from patent publication US20250179028A1, “ACRYLAMIDE COMPOUNDS” (NRG THERAPEUTICS LTD, priority 2022, published 2025).

For data set [1], the system named is mPTP. Nature of the data set: mPTP activity assay in isolated rat brain mitochondria. In kind it is biochemical. Particulars: for mPTP Rat brain pIC50: isolated rat brain mitochondria. Here is the method: mPTP activity was measured in brain mitochondria freshly isolated from female Sprague Dawley (250 to 300 gram) rats. Anaesthetised rats were perfused in-situ with ˜40 ml cold Dulbecco's Phosphate Buffered Saline (DPBS), then brains dissected and transferred into 30 ml Isolation Buffer (225 mM mannitol, 75 mM sucrose, 1 mM EGTA, adjusted to pH 7.4 with 1 M NaOH). The brain was minced using tweezers and a scalpel into ˜5 mm pieces then transferred into a 50 ml Potterton Dounce homogenization tube on ice containing 10 ml ice-cold isolation buffer (as above with addition of Complete Protease inhibitor; 1 tablet per 50 ml buffer).
Homogenisation was carried out using a […] pestle at 1800 rpm. The slurry was centrifuged at 2000 g for 10 min at 4° C., then the supernatant centrifuged at 12,000 g for 9 min. The pellet was resuspended with a dounce homogeniser in isolation buffer as above but with the addition of 0.02% digitonin, centrifuged at 12,000 g for 11 min and finally resuspended in 5 ml modified isolation buffer (as above but with EGTA reduced to 0.1 mM).
Test compounds were prepared in 384 well polypropylene assay plates as described above for the liver mitochondria assay. A stock mitochondria/Fluo5N assay solution was prepared in 5.6 ml assay buffer (120 mM mannitol, 40 mM MOPS, 5 mM KH2PO4, 60 mM KCl, 10 mM pyruvate, 2 mM malate, 2 mM MgCl2, 20 μM ADP, 1.26 μM oligomycin A, adjusted to pH 7.4) supplemented with Fluo5N pentapotassium salt (2 μM) and 1 ml mitochondria suspension, then transferred (15 μl) into the assay plate containing test compounds and incubated for 10 min at RT. Assay plates were then transferred to a FLIPR Tetra plate reader (Molecular Devices). Dye fluorescence was then measured every 3 sec for a total of 10 min. After 12 sec, a 2.5 μl bolus of Ca2+ (75 μM) was added from a source plate containing 675 μM CaCl2) in FLIPR assay buffer. IC50 values for test compounds were calculated using the fluorescence value collected at the 10 min timepoint with % inhibition calculated using the DMSO control and cyclosporin A values at […].

A short description of data set [2]: Hepatocyte clearance assay, rat. It counts as in vitro ADME. Particulars: cryopreserved primary rat hepatocytes, average value from two experiments, read-out: Rat heps Clint. Here is the method: (§1) In vitro clearance studies were performed in primary rat and human hepatocytes (BiolVT). Vials of cryopreserved rat or human hepatocytes were thawed in a 37° C. water bath for 2 min. Cells were transferred into thawing medium (Williams' Medium E containing 30% Percoll, 1×GlutaMAX-1, 15 mM HEPES, 5% fetal bovine serum (FBS), 4 μg/ml insulin, 1 μM dexamethasone), centrifuged at 100 g for 10 min then resuspended in culture medium (Leibovitz's L-15 Medium) at a concentration of 0.5×10^6 viable cells/mL (number of viable cells assessed using AO/PI staining). Hepatocytes (198 μL) were transferred into wells of a 96-well non-coated plate and placed in a 37° C. incubator for 10 min. Test compound solutions were prepared from 10 mM stocks in DMSO, diluted to 100 μM in 50% (v/v in water) acetonitrile. Test compound samples (2 μl) were added to each well of hepatocytes and incubated at 37° C. Samples (25 μl) were collected at t=0, 15, 30, […] and 120 min, mixed with 6 volumes (150 μl) of acetonitrile containing internal standard (100 nM alprazolam, 200 nM caffeine and 100 nM tolbutamide), vortexed for 5 min and centrifuged for 45 min at 3220 g. An aliquot of supernatant (100 μL) was diluted with 100 μL ultra-pure water, and the mixture was used for LC/MS/MS analysis. All incubations were performed in duplicate. Peak areas were determined from extracted ion chromatograms. The slope value, k, was determined by linear regression of the natural logarithm of the remaining percentage of the parent drug vs. incubation time curve. The in vitro half-life (in vitro t½) was determined from the slope value: in vitro t½=0.693/k. Conversion of the in vitro t½ (in min) into the in vitro intrinsic clearance (in vitro CLint, in μL/min/1×10^6 cells) was done using the following equation (mean of duplicate determinations):
(§2) [formula] • V=incubation volume (0.2 mL) • N=number of hepatocytes per well (0.1×10^6 cells).

Data set [3] in a line: Hepatocyte clearance assay, human. It counts as in vitro ADME. Particulars: cryopreserved primary human hepatocytes, average value from two experiments, read-out: Human heps Clint. As for the experimental part:
as §1, §2

For data set [4], the system named is mPTP. Nature of the data set: mPTP activity (Ca2+ retention) assay in isolated rat liver mitochondria. In kind it is biochemical. Particulars: for mPTP Rat liver pIC50: isolated rat liver mitochondria, average value from multiple experiments (n ≥ 2). The method, boiled down:
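Freshly isolated female Sprague Dawley rat liver mitochondria were energised with succinate and rotenone in pH 7.4 buffer with Fluo5N, then pre-incubated 10 min at RT with compound (30 μM to 1 nM final) before a 75 μM CaCl2 bolus. The IC50 used 10-min fluorescence, normalised to DMSO and 5 μM cyclosporin A.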

Data set [5] in a line: PBS and FaSSIF solubility. Particulars: fasted state simulated intestinal fluid (FaSSIF), fassif, kinetic from dmso stock; Fasted state simulated intestinal fluid, 2 hr at 25° C.; read-out: Solubility FaSSIF. In kind it is physicochemical. A digest of the protocol: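 Solubility was measured from 10 mM DMSO stocks diluted into FaSSIF or PBS pH 7.4, in duplicate, then shaken at 1100 rpm for 2 hr at 25 °C. Filtrates were quantified by LC-MS/MS against an internal standard and a known-concentration standard.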

≈ marks a conversion by molar mass, not a printed value.

For the molecule `Cc1c(F)cccc1NC(=O)/C=C/c1ccc2c(C#N)n[nH]c2c1` [Example 51, (E)-3-(3-cyano-1H-indazol-6-yl)-N-(3-fluoro-2-methylphenyl)acrylamide], in the data set on mPTP [1], the “activity in the rat brain mitochondria assay (in words)” value is “highest activity” and the “mPTP Rat brain pIC50” value is listed as 8.3. The hepatocyte CLint at 1 µM in data set [2] was 48.1 µL/min/1e6 cells. In addition, in data set [3], the hepatocyte CLint at 1 µM stood at 11 µL/min/1e6 cells. In addition, in the data set on mPTP [4], the “activity in the rat liver mitochondria assay (in words)” value is recorded as “highest activity” and the “mPTP Rat liver pIC50” value was found to be 7.9.
As to `Cc1n[nH]c2cc(/C=C/C(=O)N[C@H]3c4ccccc4C[C@@H]3OCC3COC3)ccc12` [Example 66, (E)-3-(3-methyl-1H-indazol-6-yl)-N-((1S,2S)-2-(oxetan-3-ylmethoxy)-2,3-dihydro-1H-inden-1-yl)acrylamide], the “mPTP Rat brain pIC50” value in the data set with mPTP [1] was 7.3. Moreover, the hepatocyte CLint at 1 µM in data set [2] was found to be 36.1 µL/min/1e6 cells; in data set [3], 25.4 µL/min/1e6 cells. Moreover, in the data set on mPTP [4], the “mPTP Rat liver pIC50” value was determined as 7.2.
Take `Cc1n[nH]c2cc(/C=C/C(=O)N[C@H]3c4ccccc4C[C@@H]3OCC3CC3)ccc12` [Example 67, (E)-N-((1S,2S)-2-(cyclopropylmethoxy)-2,3-dihydro-1H-inden-1-yl)-3-(3-methyl-1H-indazol-6-yl)acrylamide]: the “mPTP Rat brain pIC50” value in the data set on mPTP [1] is 7.3. The hepatocyte CLint at 1 µM in data set [2] is 73.3 µL/min/1e6 cells; in data set [3] it was 42.1 µL/min/1e6 cells. In the data set on mPTP [4], the “mPTP Rat liver pIC50” value is given as 7.2.
The solubility is the concentration that dissolves in the medium under given conditions. For the molecule `Cc1n[nH]c2cc(/C=C/C(=O)N[C@H]3c4ccccc4C[C@@H]3OCCF)ccc12` [Example 68, (E)-N-((1S,2S)-2-(2-fluoroethoxy)-2,3-dihydro-1H-inden-1-yl)-3-(3-methyl-1H-indazol-6-yl)acrylamide], in the data set on mPTP [1], the “mPTP Rat brain pIC50” value amounted to 7.7. Further, the hepatocyte CLint at 1 µM in data set [2] was found to be 34.9 µL/min/1e6 cells; in data set [3], 12 µL/min/1e6 cells. Besides, the “mPTP Rat liver pIC50” value in the data set on mPTP [4] came out at 7.8. Besides, the solubility at 2 h in data set [5] was 61.7 µM (≈ 23.4 µg/mL).
The matching figures for `CCO[C@H]1Cc2ccccc2[C@@H]1NC(=O)/C=C/c1ccc2c(C)n[nH]c2c1` [Example 69, (E)-N-((1S,2S)-2-ethoxy-2,3-dihydro-1H-inden-1-yl)-3-(3-methyl-1H-indazol-6-yl)acrylamide]: 7.6, 73 µL/min/1e6 cells, 17.9 µL/min/1e6 cells, 7.7 and 181 µM (≈ 65.3 µg/mL).
The matching figures for `COc1cc(C)c(NC(=O)/C=C/c2cc3[nH]nc(C)c3cc2F)c(C)n1` [Example 95, (2E)-3-(5-fluoro-3-methyl-1H-indazol-6-yl)-N-(6-methoxy-2,4-dimethylpyridin-3-yl)prop-2-enamide]: 7.9, 5 µL/min/1e6 cells, 3 µL/min/1e6 cells, 7.6 and 76 µM (≈ 26.9 µg/mL).
As for `COc1cc(C)c(NC(=O)/C=C/c2cc3[nH]nc(Cl)c3cc2F)c(C)n1` [Example 96, (2E)-3-(3-chloro-5-fluoro-1H-indazol-6-yl)-N-(6-methoxy-2,4-dimethylpyridin-3-yl)prop-2-enamide], the “mPTP Rat brain pIC50” value in the data set with mPTP [1] was 7.8. Moreover, the hepatocyte CLint at 1 µM stood at 13 µL/min/1e6 cells in data set [2] and 6 µL/min/1e6 cells in data set [3]. The “mPTP Rat liver pIC50” value in the data set on mPTP [4] is listed as 7.6. For the same molecule, the solubility at 2 h in data set [5] is 14 µM (≈ 5.25 µg/mL).
Consider `COc1cc(C)c(NC(=O)/C=C/c2cc3[nH]nc(C#N)c3cc2F)c(C)n1` [Example 98, (2E)-3-(3-cyano-5-fluoro-1H-indazol-6-yl)-N-(6-methoxy-2,4-dimethylpyridin-3-yl)prop-2-enamide], for which the “mPTP Rat brain pIC50” value with mPTP [1] was 7.0. For the same molecule, the hepatocyte CLint at 1 µM was found to be 7 µL/min/1e6 cells in data set [2] and 9 µL/min/1e6 cells in data set [3]. The “mPTP Rat liver pIC50” value with mPTP [4] amounted to 6.9.
The like results for `Cc1c(F)cncc1NC(=O)/C=C/c1ccc2c(C)n[nH]c2c1` [Example 110, (2E)-N-(5-fluoro-4-methylpyridin-3-yl)-3-(3-methyl-1H-indazol-6-yl)prop-2-enamide] were, in that order, 6.7, 307 µL/min/1e6 cells, 45 µL/min/1e6 cells and 7.1.
Regarding `Cc1ncc(F)c(C)c1NC(=O)/C=C/c1ccc2c(C)n[nH]c2c1` [Example 113, (2E)-N-(5-fluoro-2,4-dimethylpyridin-3-yl)-3-(3-methyl-1H-indazol-6-yl)prop-2-enamide], the “mPTP Rat brain pIC50” value in the data set on mPTP [1] is reported as 7.4. For the same molecule, the hepatocyte CLint at 1 µM in data set [2] and in data set [3] was 3 µL/min/1e6 cells each time. Moreover, in the data set with mPTP [4], the “mPTP Rat liver pIC50” value stood at 7.7. Further, the solubility at 2 h in data set [5] was 8 µM (≈ 2.59 µg/mL).
Take `COCc1c(F)cnc(C)c1NC(=O)/C=C/c1ccc2c(C)n[nH]c2c1` [Example 117, (2E)-N-[5-fluoro-4-(methoxymethyl)-2-methylpyridin-3-yl]-3-(3-methyl-1H-indazol-6-yl)prop-2-enamide]: the “mPTP Rat brain pIC50” value in the data set with mPTP [1] amounted to 5.9. The hepatocyte CLint at 1 µM in data set [3] was found to be 3 µL/min/1e6 cells. The “mPTP Rat liver pIC50” value in the data set with mPTP [4] is recorded as 6.6. Also, the solubility at 2 h in data set [5] is 86 µM (≈ 30.5 µg/mL).
